Results: patent US20080206819A1, “Intensified Perfusion Production Method” (priority 2006, published 2008)

Key:
Assay type in all cases: cell-based
[1] = system: Chinese hamster ovary (CHO) cell line; assay: Effect of mode of sodium butyrate addition (bolus vs. gradual ramping) on cell viability
Method: In order to investigate if the method used to deliver sodium butyrate into the cell culture bioreactor would effect cell viability, two modes of delivery were tested: bolus introduction of the desired sodium butyrate concentration and the gradual “ramping” to the desired sodium butyrate concentration. The growth period conditions were identical to those described above.
On Day 9, sodium butyrate was introduced into the bioreactors. In the bolus condition, 2 mM sodium butyrate (final concentration) was added to the medium and perfused into the bioreactor. […] The maximal concentration of sodium butyrate was maintained for the rest of the production run. Cell viability was determined by pulling samples from each bioreactor and trypan blue staining for live/dead cells. After the bolus addition of 2 mM sodium butyrate, the cell viability started to decline (after day 9). The bioreactor for the bolus condition was stopped on day 19 after the viability dropped below 50%. In contrast, the gradual ramping of sodium butyrate from day 9 to day 14 maintained high cell viability (over 85%).

[2] = system: Chinese hamster ovary (CHO) cell line; assay: Effect of increasing sodium butyrate concentrations on cell viability in perfusion culture
Method: Additional experiments using higher concentrations of sodium butyrate induction were also performed. The cells were seeded and grown similar to the conditions described above. On day 7, […] sodium butyrate was introduced into the perfusion medium. On day 10, the sodium butyrate concentration was increased to 1.0 mM. On day 12, the sodium butyrate concentration was increased to 2.0 mM. On day 14, the sodium butyrate concentration was increased to 4.0 mM and on day 17, the sodium butyrate concentration was increased to 8.0 mM. Throughout the experiment, cell viability was over 85% and the viable cell concentration reached over 4.8×10^7 cells/ml.

[3] = system: CHO (Chinese Hamster Ovary) cell-derived cell line; assay: Cell viability during production period, Example 4 (RaMP); details: RaMP: 0.5 mM sodium butyrate day 10, 1.0 mM day 14; entire production period
Method: Cells were seeded at 5×10^5 cells/ml and were allowed to grow for 9 days in the bioreactor before induction with butyrate for the RaMP method. Conditions for this growth period are similar to those described in Example 1 above. On day 10, media containing 0.5 mM sodium butyrate was perfused into the bioreactor. On day 14, media containing 1.0 mM sodium butyrate was perfused into the bioreactor.
Cell viability was monitored daily throughout the production period. Over the entire production period, cell viability remained high and never dropped below 85% for both traditional perfusion and RaMP methods.

[4] = system: CHO (Chinese Hamster Ovary) cell-derived cell line; assay: Cell viability with gradual NaB ramping in perfusion culture (summary experiment)
Method: In one experiment, 0.5 mM NaB (final concentration) was introduced into the bioreactor by perfusing RBM12.1 medium with 0.5 mM NaB into the bioreactor on day 7 of the production run. On day 10, the bioreactor was perfused with RBM 12.1 medium with 1.0 mM NaB. On day 13, the bioreactor was perfused with RBM12.1 medium with 1.5 mM NaB.

CCCC(=O)[O-].[Na+] [sodium butyrate]
% viable cells (bolus) ([1]; bolus 2 mM from Day 9, day 10 in culture): 76% | % viable cells (bolus) ([1]; bolus 2 mM from Day 9, day 11 in culture): 73% | % viable cells (bolus) ([1]; bolus 2 mM from Day 9, day 12 in culture): 76% | % viable cells (bolus) ([1]; bolus 2 mM from Day 9, day 13 in culture): 72% | % viable cells (bolus) ([1]; bolus 2 mM from Day 9, day 14 in culture): 72% | % viable cells (bolus) ([1]; bolus 2 mM from Day 9, day 15 in culture): 84% | % viable cells (bolus) ([1]; bolus 2 mM from Day 9, day 16 in culture): 79% | % viable cells (bolus) ([1]; bolus 2 mM from Day 9, day 17 in culture): 76% | % viable cells (bolus) ([1]; bolus 2 mM from Day 9, day 18 in culture): 80% | % viable cells (bolus) ([1]; bolus 2 mM from Day 9, day 19 in culture): 44% | % viable cells (bolus) ([1]; bolus 2 mM sodium butyrate introduced Day 9, day 9 in culture): 89% | cell viability ([1]; bolus 2 mM sodium butyrate, day 19, bioreactor stopped): below 50% | % viable cells (RaMP) ([1]; gradual ramping from 0.5 mM Day 9 to maximal by Day 14, day 10 in culture): 97% | % viable cells (RaMP) ([1]; gradual ramping from 0.5 mM Day 9 to maximal by Day 14, day 11 in culture): 97.6% | % viable cells (RaMP) ([1]; gradual ramping from 0.5 mM Day 9 to maximal by Day 14, day 12 in culture): 96.4% | % viable cells (RaMP) ([1]; gradual ramping from 0.5 mM Day 9 to maximal by Day 14, day 13 in culture): 97.1% | % viable cells (RaMP) ([1]; gradual ramping from 0.5 mM Day 9 to maximal by Day 14, day 14 in culture): 95.7% | cell viability ([1]; gradual ramping of sodium butyrate from day 9 to day 14): over 85% | % viable cells (RaMP) ([1]; maximal concentration maintained after ramping, day 15 in culture): 96.7% | % viable cells (RaMP) ([1]; maximal concentration maintained after ramping, day 16 in culture): 97.2% | % viable cells (RaMP) ([1]; maximal concentration maintained after ramping, day 17 in culture): 96.4% | % viable cells (RaMP) ([1]; maximal concentration maintained after ramping, day 18 in culture): 97% | % viable cells (RaMP) ([1]; maximal concentration maintained after ramping, day 19 in culture): 96.9% | % viable cells (RaMP) ([1]; maximal concentration maintained after ramping, day 20 in culture): 95.8% | % viable cells (RaMP) ([1]; maximal concentration maintained after ramping, day 21 in culture): 95.4% | % viable cells (RaMP) ([1]; maximal concentration maintained after ramping, day 22 in culture): 98.7% | % viable cells (RaMP) ([1]; maximal concentration maintained after ramping, day 23 in culture): 90.6% | % viable cells (RaMP) ([1]; maximal concentration maintained after ramping, day 24 in culture): 89.7% | % viable cells (RaMP) ([1]; maximal concentration maintained after ramping, day 25 in culture): 88.8% | % viable cells (RaMP) ([1]; sodium butyrate from 0.5 mM on Day 9, gradually increased to maximal concentration by Day 14, day 9 in culture): 97.4% | % viable cells ([2]; Na butyrate 0.5 mM, day 7): 97.3% | % viable cells ([2]; Na butyrate 0.5 mM, day 8): 97.8% | % viable cells ([2]; Na butyrate 0.5 mM, day 9): 97.8% | % viable cells ([2]; Na butyrate 1.0 mM, day 10): 97.8% | % viable cells ([2]; Na butyrate 1.0 mM, day 11): 96.6% | % viable cells ([2]; Na butyrate 2.0 mM, day 12): 97.2% | % viable cells ([2]; Na butyrate 2.0 mM, day 13): 95.9% | % viable cells ([2]; Na butyrate 4.0 mM, day 14): 97% | % viable cells ([2]; Na butyrate 4.0 mM, day 15): 96.7% | % viable cells ([2]; Na butyrate 4.0 mM, day 16): 94.2% | % viable cells ([2]; Na butyrate 8.0 mM, day 17): 94.7% | % viable cells ([2]; Na butyrate 8.0 mM, day 18): 93.3% | % viable cells ([2]; Na butyrate 8.0 mM, day 19): 91.5% | % viable cells ([2]; Na butyrate 8.0 mM, day 20): 88.1% | cell viability ([2]; sodium butyrate stepped 0.5 to 8.0 mM, day 7 to day 17, throughout the experiment): over 85% | viable cell concentration ([2]; sodium butyrate stepped 0.5 to 8.0 mM, reached): over 4.8×10^7 cells/ml | cell viability [3]: ≥ 85% | cell viability ([4]; 0.5 mM NaB day 7, 1.0 mM day 10, 1.5 mM day 13): did not decrease | cell viability ([4]; gradual ramping of sodium butyrate to desired maximal concentration, compared to bolus addition): over 85%
